From EPA's ToxRefDB 2

Assays:
rat [1] = conditions: Subchronic oral toxicity in rodents, sprague dawley, Gavage/Intubation, dose end: 13 week, group: systemic
primate = conditions: Subchronic oral toxicity in nonrodent, macaque, Gavage/Intubation, dose end: 7 week, group: systemic, systemic / clinical chemistry / alkaline phosphatase (alp/alk) / alkaline phosphatase (alp/alk) + systemic / organ weight / liver / absolute…
rat [2] = conditions: Sub-acute repeat dose toxicity; sprague dawley; Oral; Gavage/Intubation; dose end: 6 week; group: systemic; systemic / organ weight / liver / absolute + systemic / organ weight / liver / relative to body weight + systemic / pathology microscopic / …
mouse [3] = conditions: Subchronic oral toxicity in rodents, cd1, Gavage/Intubation, dose end: 13 week, group: systemic
dog [4] = conditions: Subchronic oral toxicity in nonrodent, beagle, Gavage/Intubation, dose end: 13 week, group: systemic
rat [5] = conditions: Subchronic oral toxicity in rodents, wistar, Gavage/Intubation, dose end: 13 week, group: systemic
rat [6] = conditions: Prenatal developmental toxicity study, sprague dawley, Oral, Gavage/Intubation, dose end: 15 GD
rat [7] = conditions: Combined chronic toxicity/carcinogenicity, sprague dawley, Oral, Feed, dose end: 2 year, group: systemic
dog [8] = conditions: Subchronic oral toxicity in nonrodent, beagle, Feed, dose end: 13 week, group: systemic, systemic / in life observation / body weight / body weight + systemic / in life observation / body weight / body weight gain + systemic / …
rat [9] = conditions: Subchronic oral toxicity in rodents, sprague dawley, Feed, dose end: 90 day, group: systemic, systemic / pathology microscopic / kidney / basophilia + systemic / pathology microscopic / kidney / dilatation + systemic / pathology …
dog [10] = conditions: Chronic toxicity, beagle, Oral, Gavage/Intubation, dose end: 52 week, group: systemic
mouse [11] = conditions: Subchronic oral toxicity in rodents, cd1, Feed, dose end: 14 week, group: systemic
dog [12] = conditions: Subchronic oral toxicity in nonrodent, beagle, Gavage/Intubation, dose end: 6 month, group: systemic
rat [13] = conditions: Chronic toxicity; sprague dawley; Oral; Gavage/Intubation; dose end: 6 month; group: systemic; systemic / clinical chemistry / creatinine / creatinine
rat [14] = conditions: Subchronic oral toxicity in rodents, sprague dawley, Feed, dose end: 13 week, group: systemic
rat [15] = conditions: Chronic toxicity, other, Oral, Feed, dose end: 102 week, group: systemic
mouse [16] = conditions: Carcinogenicity, cd1, Oral, Feed, dose end: 80 week, group: systemic
rat [17] = conditions: Subchronic oral toxicity in rodents, wistar, Feed, dose end: 13 week, group: systemic, systemic / organ weight / spleen / absolute + systemic / organ weight / spleen / relative to body weight + systemic / pathology microscopic…
dog [18] = conditions: Chronic toxicity; beagle; Oral; Feed; dose end: 104 week; group: systemic; systemic / clinical chemistry / [other] / [other] + systemic / pathology microscopic / liver / pigmentation + systemic / pathology …
rat [19] = conditions: Acute dermal toxicity, other, Topical, dose end: 28 day, group: systemic, systemic / pathology microscopic / thymus / necrosis
dog [20] = conditions: Subchronic oral toxicity in nonrodent, beagle, Capsule, dose end: 13 week, group: systemic, systemic / clinical chemistry / albumin / albumin + systemic / clinical chemistry / protein / protein + systemic / in life observation / …
mouse [21] = conditions: Multigenerational reproductive toxicity study, cd1, Oral, Feed, dose end: 2 generation
mouse [22] = conditions: Subchronic oral toxicity in rodents, b6c3f1, Feed, dose end: 13 week, group: systemic
rat [23] = conditions: Carcinogenicity, fischer, Oral, Feed, dose end: 2 year, group: systemic, systemic / in life observation / clinical signs / urine
mouse [24] = conditions: Carcinogenicity, b6c3f1, Oral, Feed, dose end: 2 year, group: systemic
rat [25] = conditions: Subchronic oral toxicity in rodents, fischer, Feed, dose end: 13 week, group: systemic
[26] = systemic / clinical chemistry / [other] / [other] + systemic / clinical chemistry / alanine aminotransferase (alt/sgpt) / alanine …
[27] = systemic / hematology / mean corpuscular (cell) volume (mcv) / mean corpuscular (cell) volume (mcv) + systemic / hematology / mean …
[28] = systemic / clinical chemistry / albumin / albumin + systemic / clinical chemistry / protein / protein + systemic / hematology / platelet / …
[29] = systemic / pathology microscopic / adrenal gland / vacuolization + systemic / pathology microscopic / liver / eosinophilic focus + systemic…
[30] = systemic / clinical chemistry / alanine aminotransferase (alt/sgpt) / alanine aminotransferase (alt/sgpt) + systemic / in life observation…
[31] = systemic / organ weight / adrenal gland / absolute
[32] = systemic / clinical chemistry / albumin / albumin + systemic / clinical chemistry / chloride / chloride + systemic / clinical chemistry / …
[33] = systemic / clinical chemistry / albumin / albumin + systemic / clinical chemistry / protein / protein + systemic / in life observation / …
[34] = group: developmental, developmental / developmental malformation / bone / incomplete ossification + developmental / developmental malformation / interparietal / …
[35] = group: maternal, systemic / in life observation / food consumption / food consumption + systemic / pathology gross / kidney / enlarged
[36] = systemic / pathology microscopic / kidney / dilatation + systemic / pathology microscopic / kidney / fibrosis + systemic / clinical …
[37] = systemic / organ weight / heart / absolute
[38] = systemic / organ weight / heart / absolute + systemic / clinical chemistry / alkaline phosphatase (alp/alk) / alkaline phosphatase (alp/alk…
[39] = systemic / clinical chemistry / creatinine / creatinine
[40] = systemic / clinical chemistry / creatinine / creatinine + systemic / hematology / hematocrit (hct) / hematocrit (hct) + systemic / …
[41] = systemic / organ weight / adrenal gland / relative to body weight + systemic / organ weight / heart / absolute + systemic / clinical …
[42] = systemic / clinical chemistry / creatinine / creatinine + systemic / hematology / reticulocyte / reticulocyte + systemic / organ weight / …
[43] = systemic / clinical chemistry / [other] / [other]
[44] = systemic / clinical chemistry / [other] / [other] + systemic / pathology microscopic / intestine small / pigmentation + systemic / pathology…
[45] = systemic / pathology microscopic / stomach / ulcer + systemic / hematology / anemia / anemia - nos + systemic / hematology / hematocrit (hct…
[46] = group: offspring, systemic / in life observation / body weight / offspring (pup) weight
[47] = group: parental, systemic / in life observation / food consumption / food consumption
[48] = group: reproductive, reproductive / offspring survival early / live fetuses / live fetuses + reproductive / reproductive performance / fertility / fertility
[49] = discoloration + systemic / pathology microscopic / kidney / adenoma + systemic / …
[50] = systemic / in life observation / body weight / body weight + systemic / pathology microscopic / epididymis / atypia cellular + systemic / …
[51] = systemic / in life observation / clinical signs / urine, discoloration + systemic / pathology microscopic / adrenal gland / hyperplasia + …
[52] = systemic / in life observation / clinical signs / urine, discoloration

## CCc1cc(SCc2sc(-c3ccc(C(F)(F)F)cc3)nc2CN2CCN(c3ccc(OC)cc3)CC2)ccc1OCC(=O)O
Rat [1]; [26]
  LOAEL: > 1000 mg/kg/day
  NOAEL: ≥ 1000 mg/kg/day
Rat [1]; [27]
  LEL: 30 mg/kg/day
  NEL: < 30 mg/kg/day
primate
  LEL: 5 mg/kg/day
  LOAEL: > 100 mg/kg/day
  NEL: < 5 mg/kg/day
  NOAEL: ≥ 100 mg/kg/day
Rat [2]
  LEL: 5 mg/kg/day
  LOAEL: > 100 mg/kg/day
  NEL: < 5 mg/kg/day
  NOAEL: ≥ 100 mg/kg/day
Mouse [3]; [28]
  LOAEL: > 1000 mg/kg/day
  NOAEL: ≥ 1000 mg/kg/day
Mouse [3]; [29]
  LEL: 10 mg/kg/day
  NEL: < 10 mg/kg/day

## CCN(C(=O)c1cc(C)cc(OC[C@H](C)Nc2ccncc2)c1)C(C)C.Cc1ccc(S(=O)(=O)O)cc1
Dog [4]; [30]
  LOAEL: > 20 mg/kg/day
  NOAEL: ≥ 20 mg/kg/day
Dog [4]; [31]
  LEL: 4 mg/kg/day
  NEL: < 4 mg/kg/day
Rat [5]; [32]
  LOAEL: > 40 mg/kg/day
  NOAEL: ≥ 40 mg/kg/day
Rat [5]; [33]
  LEL: 12 mg/kg/day
  NEL: < 12 mg/kg/day

## CCNc1nc(NC(C)C)[nH]c(=O)n1 [2-Hydroxyatrazine]
Rat [6]; [34]
  LEL: 125 mg/kg/day
  LOAEL: 125 mg/kg/day
  NEL: 25 mg/kg/day
  NOAEL: 25 mg/kg/day
Rat [6]; group: maternal, systemic / in life observation / food consumption / food consumption
  LOAEL: 125 mg/kg/day
Rat [6]; [35]
  LEL: 125 mg/kg/day
  NEL: 25 mg/kg/day
  NOAEL: 25 mg/kg/day
Rat [7]; systemic / pathology microscopic / kidney / dilatation + systemic / pathology microscopic / kidney / fibrosis
  LOAEL: 7.75 mg/kg/day
Rat [7]; [36]
  NEL: 0.962 mg/kg/day
  NOAEL: 0.962 mg/kg/day
Rat [7]; systemic / pathology microscopic / kidney / dilatation + systemic / pathology microscopic / kidney / fibrosis + systemic / pathology gross…
  LEL: 7.75 mg/kg/day
Dog [8]
  LEL: 59.6 mg/kg/day
  LOAEL: 59.6 mg/kg/day
  NEL: 5.8 mg/kg/day
  NOAEL: 5.8 mg/kg/day
Rat [9]
  LEL: 18.9 mg/kg/day
  LOAEL: 18.9 mg/kg/day
  NEL: 6.3 mg/kg/day
  NOAEL: 6.3 mg/kg/day

## CC(=O)c1ccc2c(c1)[C@H](NC(=O)c1ccc(F)cc1)[C@@H](O)C(C)(C)O2 [Carabersat]
Dog [10]; [37]
  LEL: 20 mg/kg/day
  NEL: < 20 mg/kg/day
Dog [10]; [38]
  LOAEL: > 1000 mg/kg/day
  NOAEL: ≥ 1000 mg/kg/day
Mouse [11]; [39]
  LEL: 200 mg/kg/day
Mouse [11]; [40]
  LOAEL: > 2000 mg/kg/day
  NEL: 20 mg/kg/day
  NOAEL: ≥ 2000 mg/kg/day
Dog [12]; systemic / organ weight / adrenal gland / relative to body weight + systemic / clinical chemistry / alkaline phosphatase (alp/alk) / …
  LEL: 200 mg/kg/day
Dog [12]; systemic / organ weight / adrenal gland / relative to body weight + systemic / organ weight / heart / absolute
  NEL: 20 mg/kg/day
Dog [12]; [41]
  LOAEL: > 1000 mg/kg/day
  NOAEL: ≥ 1000 mg/kg/day
Rat [13]
  LEL: 200 mg/kg/day
  LOAEL: > 2000 mg/kg/day
  NEL: 20 mg/kg/day
  NOAEL: ≥ 2000 mg/kg/day
Rat [14]; [39]
  LEL: 20 mg/kg/day
  NEL: < 20 mg/kg/day
Rat [14]; [42]
  LOAEL: > 2000 mg/kg/day
  NOAEL: ≥ 2000 mg/kg/day

## Oc1cccc2cccnc12.Oc1cccc2cccnc12.[Cu] [Copper-8-hydroxyquinoline (1:2)]
Rat [15]; [43]
  LEL: 0.25 mg/kg/day
  NEL: < 0.25 mg/kg/day
Rat [15]; [44]
  LOAEL: 100 mg/kg/day
  NOAEL: 25 mg/kg/day
Mouse [16]; systemic / pathology microscopic / stomach / ulcer
  LOAEL: 208 mg/kg/day
Mouse [16]; [45]
  NEL: 57.1 mg/kg/day
  NOAEL: 57.1 mg/kg/day
Mouse [16]; systemic / pathology microscopic / stomach / ulcer + systemic / pathology microscopic / spleen / hematopoietic cell proliferation
  LEL: 208 mg/kg/day
Rat [17]
  LEL: 100 mg/kg/day
  LOAEL: 100 mg/kg/day
  NEL: 30 mg/kg/day
  NOAEL: 30 mg/kg/day
Dog [18]
  LEL: 25 mg/kg/day
  LOAEL: 25 mg/kg/day
  NEL: 5 mg/kg/day
  NOAEL: 5 mg/kg/day
Rat [19]
  LEL: 1000 mg/kg/day
  LOAEL: 1000 mg/kg/day
  NEL: 200 mg/kg/day
  NOAEL: 200 mg/kg/day
Dog [20]
  LEL: 50 mg/kg/day
  LOAEL: 50 mg/kg/day
  NEL: 5 mg/kg/day
  NOAEL: 5 mg/kg/day

## O=C1CN(/N=C/c2ccc([N+](=O)[O-])o2)C(=O)N1 [Nitrofurantoin]
Mouse [21]; [46]
  LEL: 99.2 mg/kg/day
  LOAEL: > 213 mg/kg/day
  NEL: 43.8 mg/kg/day
  NOAEL: ≥ 213 mg/kg/day
Mouse [21]; [47]
  LEL: 164 mg/kg/day
  LOAEL: > 164 mg/kg/day
  NEL: 88.7 mg/kg/day
  NOAEL: ≥ 164 mg/kg/day
Mouse [21]; [48]
  LEL: 213 mg/kg/day
  LOAEL: > 213 mg/kg/day
  NEL: 99.2 mg/kg/day
  NOAEL: ≥ 213 mg/kg/day
Mouse [22]; systemic / in life observation / body weight / body weight + systemic / pathology microscopic / ovary / necrosis + systemic / in life …
  NOAEL: 375 mg/kg/day
Mouse [22]; systemic / in life observation / body weight / body weight + systemic / pathology microscopic / ovary / necrosis + systemic / pathology …
  LOAEL: 750 mg/kg/day
Mouse [22]; systemic / pathology microscopic / testes / aspermatogenesis + systemic / pathology microscopic / testes / degeneration
  LEL: 195 mg/kg/day
Mouse [22]; systemic / pathology microscopic / testes / aspermatogenesis + systemic / pathology microscopic / testes / degeneration + systemic / in life…
  NEL: 90 mg/kg/day
Rat [23]; discoloration
  LEL: 30 mg/kg/day
  NEL: < 30 mg/kg/day
Rat [23]; [49]
  LOAEL: > 60 mg/kg/day
  NOAEL: ≥ 60 mg/kg/day
Mouse [24]; [50]
  LOAEL: 570 mg/kg/day
  NOAEL: 300 mg/kg/day
Mouse [24]; [51]
  LEL: 280 mg/kg/day
  NEL: < 280 mg/kg/day
Rat [25]; systemic / in life observation / body weight / body weight + systemic / in life observation / clinical signs / urine, discoloration + …
  NOAEL: 65 mg/kg/day
Rat [25]; systemic / in life observation / body weight / body weight + systemic / pathology microscopic / testes / degeneration
  LOAEL: 125 mg/kg/day
Rat [25]; [52]
  LEL: 30 mg/kg/day
  NEL: < 30 mg/kg/day
